From patent US9371336B2, “Compounds for treating spinal muscular atrophy” (PTC Therapeutics Inc., priority 2012, dated 2016)

Legend:
Smn protein = Smn protein assay (HTRF) in cultured cells (SMA patient fibroblasts GM03813); type: cell-based, human; settings: for Smn protein expression: SMA Type 1 patient fibroblast cells, 48 hour, SMN HTRF assay (FIG. 6); for EC1.5x for Smn protein expression: SMA patient fibroblast cells (GM03813), HTRF, 7-point concentration data, concentration producing 1.5 times Smn protein vs DMSO vehicle control; for EC1.5x for Smn protein expression / maximum fold (Fold) increase of Smn protein: 48 hours; for maximum fold (Fold) increase of Smn protein: SMA patient fibroblast cells, 7-point concentration curve, relative to vehicle control
In short: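 Smn level is expressed as fold over vehicle, from blank-corrected ΔF of the 665/620 nm HTRF ratio. Readout used anti-SMN d2 and kryptate antibodies on RIPA lysates. GM03813 SMA fibroblasts had 48 h exposure at 37° C to seven 3.16-fold compound dilutions, run in triplicate.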

[1] = tested on: SMN2 full length and Δ7 mRNA; assay: Endogenous SMN2 mRNA RT-qPCR splicing assay in cultured cells (GM03813 SMA patient cells); type: cell-based, human; settings: Type 1 SMA patient fibroblasts GM03813, increasing concentrations, 24 hr, RT-qPCR (FIG. 4)
Description: The reverse transcription-quantitative PCR-based (RT-qPCR) assay is used to quantify the levels of the SMN2 full length and Δ7 mRNA in primary cells and cell lines containing the SMN2 gene treated with a test compound.
GM03813 SMA patient cells (5,000 cells/well) are seeded in 200 μL, of cell culture medium (DMEM plus 10% FBS) in 96-well flat-bottom plates and the plate is immediately swirled to ensure proper dispersal of cells, forming an even monolayer of cells. Cells are allowed to attach for at least 4-6 hrs. Test compounds are serially diluted 3.16-fold in 100% DMSO to generate a 7-point concentration curve. A solution of test compound (1 μL, 200× in DMSO) is added to each test well and 1 μL, DMSO is added to each control well. The plate is incubated for 24 hrs in a cell culture incubator (37° C., 5% CO2, 100% relative humidity). The cells are then lysed in Cells-To-Ct lysis buffer and the lysate is stored at 80° C.
SMN2-specific spliced products and GAPDH mRNA are identified using the following primers and probes in Table 5. Primer SMN FL Forward B (SEQ ID NO. 7) hybridizes to a nucleotide sequence in exon 7 (nucleotide 32 to nucleotide 54) and exon 8 (nucleotide 1 to nucleotide 4), primer SMN Δ7 Forward B (SEQ ID NO. 8) hybridizes to a nucleotide sequence in exon 6 (nucleotide 87 to nucleotide 111) and exon 8 (nucleotide 1 to nucleotide 3), primer SMN Reverse B (SEQ ID NO. 9) hybridizes to a nucleotide sequence in exon 8 (nucleotide 39 to nucleotide 62), probe SMN Probe B (SEQ ID NO. 10) hybridizes to a nucleotide sequence in exon 8 (nucleotide 7 to nucleotide 36). These primers and probes hybridize to nucleotide sequences common to human SMN1 and SMN2 mRNA. Since the SMA patient cells used in Example 3 contain only the SMN2 gene, RT-qPCR can quantify only SMN2 full-length and Δ7 mRNA.
The SMN forward and reverse primers are used at final concentrations of 0.4 μM. The SMN probe is used at a final concentration of 0.15 μM. GAPDH primers are used at final concentrations of 0.1 μM and the probe at 0.075 μM. […]
The increase of SMN2 FL and decrease in SMN2 Δ7 mRNA relative to those in cells treated with vehicle control are determined from real-time PCR data using a modified ΔΔCt method (as described in Livak and Schmittgen, Methods, 2001, 25:402-8). The amplification efficiency (E) is calculated from the slope of the amplification curve for SMN2 FL, SMN2 Δ7, and GAPDH individually. The abundances of SMN2 FL, SMN2 Δ7, and GAPDH are then calculated as (1+E)^−Ct, where Ct is the threshold value for each amplicon. […]

SMILES	Smn protein expression (Smn protein)	EC1.5x for Smn protein expression (Smn protein)	maximum fold (Fold) increase of Smn protein (Smn protein)	SMN2 FL mRNA relative to vehicle [1]	SMN2 Δ7 mRNA relative to vehicle [1]
CN1CCN(c2ccc3cc(-c4nc5c(Cl)cccc5s4)c(=O)oc3n2)CC1 [Cpd 5, 3-(4-chloro-1,3-benzothiazol-2-yl)-7-(4-methylpiperazin-1-yl)-2H-pyrano[2,3-b]pyridin-2-one]	dose dependent increase in Smn protein expression	*** (an EC1.5× between >0.3 μM and ≦1 μM is indicated by three stars (***))	**** (a fold increase between >1.5 and ≦1.65 is indicated by four stars (****))	progressively more SMN2 FL mRNA	less SMN2 Δ7 mRNA
Cc1ccc2nc(-c3cc4ccc(N5CCN(C)CC5)nc4oc3=O)cn2c1 [Cpd 27, 3-(6-methylimidazo[1,2-a]pyridin-2-yl)-7-(4-methylpiperazin-1-yl)-2H-pyrano[2,3-b]pyridin-2-one]	dose dependent increase in Smn protein expression	** (an EC1.5× between >1 and ≦3 μM is indicated by two stars (**))	**** (a fold increase between >1.5 and ≦1.65 is indicated by four stars (****))	progressively more SMN2 FL mRNA	less SMN2 Δ7 mRNA
